Results from US7741346B2, “Angiogenesis inhibitor” (Santen Pharmaceutical Co., Ltd., priority 2001, dated 2010).

Tests used:
[1] = system: normal human umbilical vein endotherial cells (HUVEC); test: VEGF-induced HUVEC proliferation (in vitro angiogenesis inhibition test); format: cell-based; settings: Homo sapiens, HUVEC, 72 h, 10 μM test compound, 10 ng/ml VEGF, three days after adding VEGF, WST-8 absorbance at 450 nm; read-out: Inhibitory rate (%) (cell growth inhibitory rate to the control)
Description: (1) Angiogenesis Inhibition Tests Using Human Endothelial Cells
The effects of the present compounds on the in vitro angiogenesis were evaluated by using vascular endothelial growth factor (VEGF)-induced normal human umbilical vein endotherial cells (HUVEC) proliferation system (Cancer Res., 59, 99-106 (1999)), wherein inhibitory effects of drugs on cell growth reactions induced by treating HUVEC with VEGF as an in vitro angiogenesis evaluation model.
The present compound was dissolved in DMSO and then diluted with a medium to prepare 40 μM test compound solution.
2×10^3 cells/well of HUVEC was seeded onto a type I collagen coated 96-well plate. After one day, 25 μl of the 40 μM test compound solution and a 0.8% DMSO solution as a control were added to each well (final concentration; 10 μM of the test compound and 0.2% of DMSO). One hour after adding the test compound, 25 μl of 40 ng/ml VEGF solution was added to each well(final concentration; 10 ng/ml of VEGF). Three days after adding VEGF, a WST-8 assay reagent (manufactured by Dojin Chemical Co., Ltd.) was added to each well in an amount of 10 μl, and absorbance at 450 nm was measured.
Calculating cell growth inhibitory rates (%) to the control, angiogenesis inhibitory rates of almost all of the test compounds were 80% or higher.

Row | melting point | Structure (SMILES) | inhibition at 10 µM [1] [%]
1 | 128 to 130 °C | CCCCCN(CCC12CC3CC(CC(C3)C1)C2)C(=O)NC[C@@H]1C[C@@H]1c1ccncc1 (relative stereo) [Compound No. 15-1, cis-1-[2-(1-adamantyl)ethyl]-1-pentyl-3-[2-(4-pyridyl)cyclopropylmethyl]urea] | –
2 | 142.6 to 145 °C | O=C(NCCCc1ccncc1)N(CCCC(F)(F)F)CCC12CC3CC(CC(C3)C1)C2 [Compound No. 1-105, 1-[2-(1-Adamantyl)ethyl]-3-[3-(4-pyridyl)propyl]-1-(4,4,4-trifluorobutyl)urea] | –
3 | 132 to 132.5 °C | CCCN(CC(=O)NC12CC3CC(CC(C3)C1)C2)C(=O)NCCCc1ccncc1 [Compound No. 1-132, 1-(1-Adamantyl)aminocarbonylmethyl-1-propyl-3-[3-(4-pyridyl)propyl]urea] | –
4 | 76 to 79 °C | O=C(NCCCc1ccncc1)N1CCc2ccccc2C1 [Compound No. 1-5, N-[3-(4-Pyridyl)propyl]-1,2,3,4-tetrahydroisoquinoline-2-carboxamide] | –
5 | 88.9 to 90 °C | O=C(NCCCc1ccncc1)N(CCCC12CC3CC(CC(C3)C1)C2)CC(F)(F)F [Compound No. 1-123, 1-[3-(1-Adamantyl)propyl]-3-[3-(4-pyridyl)propyl]-1-(2,2,2-trifluoroethyl)urea] | –
6 | 148 to 149 °C | CCCN(CCCC12CC3CC(CC(C3)C1)C2)C(=O)NCCCc1ccncc1.O=P(O)(O)O | –
7 | 155 to 158 °C | O=C(NCCCc1ccncc1)N(CCC12CC3CC(CC(C3)C1)C2)CC1CCCC1 [Compound No. 1-21, 1-[2-(1-Adamantyl)ethyl]-1-cyclopentylmethyl-3-[3-(4-pyridyl)propyl]urea] | –
8 | 94 to 98 °C | O=C(NCCCc1ccncc1)N1CCOCC1 [Compound No. 1-6, N-[3-(4-Pyridyl)propyl]-4-morpholinecarboxamide] | –
9 | 82.5 to 84.9 °C | CCCCCN(CCC12CC3CC(CC(C3)C1)C2)C(=O)NCC(C)(C)Cc1ccncc1 [Compound No. 1-135, 1-[2-(1-Adamantyl)ethyl]-3-[2,2-dimethyl-3-(4-pyridyl)propyl]-1-pentylurea] | –
10 | ~ 100 °C | Cl.Cl.NN(CCC12CC3CC(CC(C3)C1)C2)C(=O)NCCCc1ccncc1 | –
11 | 110 to 110.5 °C | CCCN(CCCCC12CC3CC(CC(C3)C1)C2)C(=O)NCCCc1ccncc1 [Compound No. 1-125, 1-[4-(1-Adamantyl)butyl]-1-propyl-3-[3-(4-pyridyl)propyl]urea] | –
12 | 93 to 98 °C | CCCCCN(CCC12CC3CC(CC(C3)C1)C2)C(=O)NCCC(C)c1ccncc1 (centres unmarked) [Compound No. 1-104, 1-[2-(1-Adamantyl)ethyl]-1-pentyl-3-[3-(4-pyridyl)butyl]urea] | –

The remaining lines, values behind:

Row | Structure (SMILES) | melting point | inhibition at 10 µM [1] [%]
13 | CCCCCN(CCC12CC3CC(CC(C3)C1)C2)C(=O)NCCCc1ccncc1 [Compound No. 1-1, 1-[2-(1-Adamantyl)ethyl]-1-pentyl-3-[3-(4-pyridyl)propyl]urea] | – | 83.4
14 | CCCCCN(CCC12CC3CC(CC(C3)C1)C2)C(=O)CCCCCc1ccncc1 [Compound No. 2-20, 6-(4-Pyridyl)caproic acid N-[2-(1-adamantyl)ethyl]-N-pentylamide] | – | 82.5
15 | CCCN(CCCC12CC3CC(CC(C3)C1)C2)C(=O)NCCCc1ccncc1 [Compound No. 1-35, 1-[3-(1-Adamantyl)propyl]-1-propyl-3-[3-(4-pyridyl)propyl]urea] | – | 83.7
16 | C=CCN(CCC12CC3CC(CC(C3)C1)C2)C(=O)NCCCc1ccncc1 [Compound No. 1-23, 1-[2-(1-Adamantyl)ethyl]-1-allyl-3-[3-(4-pyridyl)propyl]urea] | 99 to 102 °C | –
17 | O=C(NCCCc1ccncc1)N(CCCc1ccccc1)C(c1ccccc1)c1ccccc1 [Compound No. 1-93, 1-Diphenylmethyl-1-(3-phenylpropyl)-3-[3-(4-pyridyl)propyl]urea] | 123 to 124.8 °C | –
18 | CC(C)(C)OC(=O)NCCN(CCC12CC3CC(CC(C3)C1)C2)C(=O)NCCCc1cc[n+](Cc2ccccc2)cc1.[Br-] | 97 °C | –
19 | O=C(NCCCc1ccncc1)N(CCC12CC3CC(CC(C3)C1)C2)Cc1ccccc1 [Compound No. 1-43, 1-[2-(1-Adamantyl)ethyl]-1-benzyl-3-[3-(4-pyridyl)propyl]urea] | 130.5 to 135 °C | –
20 | CCCCCN(CCC12CC3CC(CC(C3)C1)C2)C(=O)NCc1ccccn1 [Compound No. 1-72, 1-[2-(1-Adamantyl)ethyl]-1-pentyl-3-(2-pyridyl)methylurea] | 87.5 to 92 °C | –
21 | OCCN(CCc1ccccc1)C(=S)NCCCc1ccncc1 [Compound No. 7-2, 1-(2-Hydroxyethyl)-1-phenethyl-3-[3-(4-pyridyl)propyl]thiourea] | 105.6 to 107.1 °C | –
22 | Cl.O=C1CCN(CCC23CC4CC(CC(C4)C2)C3)C(=O)N1CCCc1ccncc1 | 177 to 178.5 °C | –
23 | CCCCCN(CCC1CCCCC1)C(=O)NCc1ccncc1 [Compound No. 1-52, 1-(2-Cyclohexylethyl)-1-pentyl-3-(4-pyridyl)methylurea] | 64.7 to 65.8 °C | –
24 | Cl.O=C1CCN(CCCc2ccncc2)C(=O)N1CCC12CC3CC(CC(C3)C1)C2 | 170 °C | –
25 | CCCCCN(CCC12CC3CC(CC(C3)C1)C2)C(=O)NCCc1ccc(O)cc1 | 96.3 to 99.4 °C | –
26 | Cl.O=C1CCN(CCC2CCCCC2)C(=O)N1Cc1ccncc1 | 64 to 74.5 °C | –
27 | CCCCCN(CCC12CC3CC(CC(C3)C1)C2)C(=O)NCCC(=O)c1ccncc1 [Compound No. 31-1, 1-[2-(1-Adamantyl)ethyl]-3-[3-oxo-3-(4-pyridyl)propyl]-1-pentylurea] | 103.5 to 104 °C | –
28 | CCCCCN(CCC12CC3CC(CC(C3)C1)C2)C(=O)NCCCc1cc[n+]([O-])cc1 [Compound No. 16-1, 4-[3-[3-[2-(1-Adamantyl)ethyl]-3-pentylureido]propyl]pyridine N-oxide] | 97.8 to 127 °C | –
29 | S=C1N(CCCc2ccncc2)CCN1CCc1ccccc1 [Compound No. 8-1, 1-Phenethyl-3-[3-(4-pyridyl)propyl]-2-imidazolidinethione] | 99.5 to 104 °C | –
30 | CC(C)CCN(CCC(C)C)C(=O)NCCCc1ccncc1.Cl | 120.5 to 131.7 °C | –
31 | COCCN(CCC12CC3CC(CC(C3)C1)C2)C(=O)NCCCc1ccncc1 [Compound No. 1-18, 1-[2-(1-Adamantyl)ethyl]-1-(2-methoxyethyl)-3-[3-(4-pyridyl)propyl]urea] | 101.5 to 104.5 °C | –
32 | C=C(C)CN(CCC12CC3CC(CC(C3)C1)C2)C(=O)NCCCc1ccncc1 [Compound No. 1-33, 1-[2-(1-Adamantyl)ethyl]-1-(2-methyl-2-propenyl)-3-[3-(4-pyridyl)propyl]urea] | 108 to 109 °C | –
33 | CCNCCN(CCC12CC3CC(CC(C3)C1)C2)C(=O)NCCCc1ccncc1 [Compound No. 20-1, 1-[2-(1-Adamantyl)ethyl]-1-[2-(N-ethylamino)ethyl]-3-[3-(4-pyridyl)propyl]urea] | 96.8 to 104.9 °C | –
34 | O=C(NCCCc1ccncc1)N(CCCCC(F)(F)F)CCC12CC3CC(CC(C3)C1)C2 [Compound No. 1-106, 1-[2-(1-Adamantyl)ethyl]-3-[3-(4-pyridyl)propyl]-1-(5,5,5-trifluoropentyl)urea] | 116.9 to 118.9 °C | –
35 | CC(C)(C)OC(=O)NCCN(CCC12CC3CC(CC(C3)C1)C2)C(=O)NCCCc1ccncc1 [Compound No. 10-8, 1-[2-(1-Adamantyl)ethyl]-1-[2-[N-(t-butoxycarbonyl)amino]ethyl]-3-[3-(4-pyridyl)propyl]urea] | 158 to 160.5 °C | –
36 | CCCCCN(CCC12CC3CC(CC(C3)C1)C2)C(=O)NCCc1cccnc1 [Compound No. 1-76, 1-[2-(1-Adamantyl)ethyl]-1-pentyl-3-[2-(3-pyridyl)ethyl]urea] | 112.5 to 114.5 °C | –
37 | O=C(NCCCc1ccncc1)N(CCC12CC3CC(CC(C3)C1)C2)C1CCCC1 [Compound No. 1-70, 1-[2-(1-Adamantyl)ethyl]-1-cyclopentyl-3-[3-(4-pyridyl)propyl]urea] | 135.5 to 137.5 °C | –
38 | CN(CCN(CCC12CC3CC(CC(C3)C1)C2)C(=O)NCCCc1ccncc1)S(C)(=O)=O [Compound No. 10-4, 1-[2-(1-Adamantyl)ethyl]-1-[2-[N-methyl-N-(methylsulfonyl)amino]ethyl]-3-[3-(4-pyridyl)propyl]urea] | 164.9 to 167.2 °C | –
39 | CC(C)(C)OC(=O)CCN(CCC12CC3CC(CC(C3)C1)C2)C(=O)NCCCc1ccncc1 [Compound No. 1-69, 1-[2-(1-Adamantyl)ethyl]-1-[2-(t-butoxycarbonyl)ethyl]-3-[3-(4-pyridyl)propyl]urea] | 124.5 to 127 °C | –
40 | Cl.O=C(NCCCc1ccncc1)N(CCC12CC3CC(CC(C3)C1)C2)CCC12CC3CC(CC(C3)C1)C2 | 120 to 122.5 °C | –
41 | CCCCCN(CCC12CC3CC(CC(C3)C1)C2)C(=O)NCCCc1ccnc2ccccc12 [Compound No. 1-91, 1-[2-(1-Adamantyl)ethyl]-1-pentyl-3-[3-(4-quinolyl)propyl]urea] | 80.2 to 102 °C | –
